Converted amounts (≈) assume the structure as drawn. “Also recorded” adds a separate entry of the source. Read-outs that look alike come from different tables or passages of the source.
Columns and labels:
[1] = Aqueous solubility, pION method
[2] = Plasma protein binding in three species
[3] = molecular target: T1, CYP3A4 (Homo sapiens, UniProt P08684); assay: CYP3A4 inhibition
[4] = Pharmacokinetics in the rat, ip and iv; settings: for plasma concentration at the 12 h time point: highest dose (10 mg/kg)
[5] = molecular target: T2, CYP1A2 (Homo sapiens, UniProt P05177); assay: CYP1A2 inhibition
T2 sequence (P05177 1-516): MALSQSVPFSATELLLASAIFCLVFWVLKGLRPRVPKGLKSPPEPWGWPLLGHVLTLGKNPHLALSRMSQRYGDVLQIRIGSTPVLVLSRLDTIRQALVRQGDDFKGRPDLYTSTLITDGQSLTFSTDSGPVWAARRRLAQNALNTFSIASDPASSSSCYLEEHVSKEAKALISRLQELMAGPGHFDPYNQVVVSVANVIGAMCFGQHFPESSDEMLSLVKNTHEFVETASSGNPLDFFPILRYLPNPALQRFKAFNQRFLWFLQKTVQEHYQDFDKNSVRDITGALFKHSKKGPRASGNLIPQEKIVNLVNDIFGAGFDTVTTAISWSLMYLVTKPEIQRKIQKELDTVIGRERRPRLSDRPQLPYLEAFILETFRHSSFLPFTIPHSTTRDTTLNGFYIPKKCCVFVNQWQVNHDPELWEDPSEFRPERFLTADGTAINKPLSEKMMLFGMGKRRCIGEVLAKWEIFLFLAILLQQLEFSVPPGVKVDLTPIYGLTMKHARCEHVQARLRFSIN

[6] = tested on: ASP/OVA-sensitized mice; assay: Ovalbumin/Aspergillus protease mouse model of allergic asthma, BALF cell counts; settings: 10 mg/kg ip 30 min prior to allergen challenge, BALF 2 days post-challenge
[7] = molecular target: T3, hP2Y14R (Homo sapiens, UniProt Q15391); assay: Competitive binding assay of CHO-hP2Y14R cells at different pH levels
T3 sequence (Q15391 1-338): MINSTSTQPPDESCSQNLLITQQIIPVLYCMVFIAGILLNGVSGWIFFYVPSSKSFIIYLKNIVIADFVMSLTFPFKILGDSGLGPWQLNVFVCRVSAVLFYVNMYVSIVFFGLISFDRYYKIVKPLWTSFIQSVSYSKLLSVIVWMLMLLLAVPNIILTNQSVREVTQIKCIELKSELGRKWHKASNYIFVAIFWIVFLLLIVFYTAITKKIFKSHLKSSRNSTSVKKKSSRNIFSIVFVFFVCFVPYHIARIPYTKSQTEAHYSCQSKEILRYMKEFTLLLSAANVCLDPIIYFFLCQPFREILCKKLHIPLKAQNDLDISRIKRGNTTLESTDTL

[8] = Observed solubility in water, DMSO or aqueous DMSO; settings: for solubility in DMSO at 1 mM: as a zwitterion, 1 mM in DMSO
[9] = molecular target: δ-opioid (DOR) receptor (Homo sapiens, UniProt P41143); assay: PDSP off-target binding, DOR
Sequence of δ-opioid (DOR) receptor (P41143 whole entry): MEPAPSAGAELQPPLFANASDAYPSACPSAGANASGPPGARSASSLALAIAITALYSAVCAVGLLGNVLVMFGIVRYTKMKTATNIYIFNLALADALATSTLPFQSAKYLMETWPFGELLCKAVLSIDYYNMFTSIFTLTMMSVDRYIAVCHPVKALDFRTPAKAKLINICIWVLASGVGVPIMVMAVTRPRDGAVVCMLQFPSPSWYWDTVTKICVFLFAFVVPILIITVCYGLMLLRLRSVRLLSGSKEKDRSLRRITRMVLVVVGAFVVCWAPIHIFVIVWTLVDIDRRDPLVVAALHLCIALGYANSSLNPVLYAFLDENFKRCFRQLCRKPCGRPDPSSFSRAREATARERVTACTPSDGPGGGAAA

[10] = molecular target: CB1 cannabinoid receptor (Homo sapiens, UniProt P21554); assay: PDSP functional agonist/antagonist assay, CB1; type: cell-based
Sequence of CB1 cannabinoid receptor (P21554 whole entry): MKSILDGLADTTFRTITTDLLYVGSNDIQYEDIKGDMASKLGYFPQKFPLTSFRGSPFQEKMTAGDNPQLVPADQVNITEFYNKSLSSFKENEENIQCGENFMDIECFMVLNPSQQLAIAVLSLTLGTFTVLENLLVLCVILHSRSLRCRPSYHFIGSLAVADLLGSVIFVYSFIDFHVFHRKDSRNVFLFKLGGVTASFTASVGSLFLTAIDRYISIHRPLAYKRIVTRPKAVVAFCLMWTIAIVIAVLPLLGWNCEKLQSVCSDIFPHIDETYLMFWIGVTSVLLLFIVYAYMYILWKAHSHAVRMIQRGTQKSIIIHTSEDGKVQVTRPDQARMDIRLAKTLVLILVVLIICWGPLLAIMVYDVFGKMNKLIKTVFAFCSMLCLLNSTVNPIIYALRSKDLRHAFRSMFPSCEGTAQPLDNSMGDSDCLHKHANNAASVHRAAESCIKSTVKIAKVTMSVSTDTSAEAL

[11] = molecular target: CB2 cannabinoid receptor (Homo sapiens, UniProt P34972); assay: PDSP functional agonist/antagonist assay, CB2; type: cell-based
Sequence of CB2 cannabinoid receptor (P34972 whole entry): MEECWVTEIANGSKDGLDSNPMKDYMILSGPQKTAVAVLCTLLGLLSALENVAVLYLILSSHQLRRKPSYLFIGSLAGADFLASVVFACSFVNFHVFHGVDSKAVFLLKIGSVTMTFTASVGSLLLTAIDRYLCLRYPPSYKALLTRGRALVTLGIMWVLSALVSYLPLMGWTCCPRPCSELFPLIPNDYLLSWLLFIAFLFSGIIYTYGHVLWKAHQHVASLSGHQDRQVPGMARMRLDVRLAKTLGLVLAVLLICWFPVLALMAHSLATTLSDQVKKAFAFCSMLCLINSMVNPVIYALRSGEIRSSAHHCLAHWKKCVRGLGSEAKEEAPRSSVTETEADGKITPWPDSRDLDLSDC

[12] = tested on: CCI of the sciatic nerve in adult male ICR mice; settings: mouse, 10 μmol/kg, ip; ref Mufti et al.[12]; cited from earlier work
[13] = molecular target: T4, mP2Y14R (Mus musculus, UniProt Q9ESG6); settings: mP2Y14R-expressing HEK293 cells, 1 μM, fluorescence micrographs; ref [12]; cited from earlier work
T4 sequence (Q9ESG6 1-338): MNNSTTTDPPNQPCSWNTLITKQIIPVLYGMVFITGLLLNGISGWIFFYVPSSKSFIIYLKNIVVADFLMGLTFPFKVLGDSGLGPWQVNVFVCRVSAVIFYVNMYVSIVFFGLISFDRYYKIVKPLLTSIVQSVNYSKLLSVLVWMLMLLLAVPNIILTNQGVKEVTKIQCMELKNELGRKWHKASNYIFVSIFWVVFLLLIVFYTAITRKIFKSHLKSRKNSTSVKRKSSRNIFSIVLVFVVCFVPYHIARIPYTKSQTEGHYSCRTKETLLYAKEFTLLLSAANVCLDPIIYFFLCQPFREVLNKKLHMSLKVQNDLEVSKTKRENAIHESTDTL

[14] = molecular target: T4, mP2Y14R; settings: species comparison
[15] = Relative lipophilicity from RP-HPLC retention time; type: physicochemical; settings: RP-HPLC retention time (C18), 10 to 100% acetonitrile in 10 mM triethylammonium acetate
[16] = tested on: CCI of the sciatic nerve in adult male ICR mice; assay: Chronic constriction injury; settings: mouse, 10 μmol/kg, ip
[17] = molecular target: T3, hP2Y14R; type: binding; settings: hP2Y14R, IC50 (nM), Table 2; hP2Y14R-CHO cells; values from Tables 1A and 1B
[18] = human (h) microsomes; ref Yu et al.[23]; cited from earlier work
[19] = human, rat, and mouse plasma, ref Yu et al.[23]; cited from earlier work
[20] = molecular target: CYP2C9 (Homo sapiens, UniProt P11712); settings: read-out: CYP2C9 (IC50); ref Yu et al.[23]; cited from earlier work
Sequence of CYP2C9 (P11712 whole entry): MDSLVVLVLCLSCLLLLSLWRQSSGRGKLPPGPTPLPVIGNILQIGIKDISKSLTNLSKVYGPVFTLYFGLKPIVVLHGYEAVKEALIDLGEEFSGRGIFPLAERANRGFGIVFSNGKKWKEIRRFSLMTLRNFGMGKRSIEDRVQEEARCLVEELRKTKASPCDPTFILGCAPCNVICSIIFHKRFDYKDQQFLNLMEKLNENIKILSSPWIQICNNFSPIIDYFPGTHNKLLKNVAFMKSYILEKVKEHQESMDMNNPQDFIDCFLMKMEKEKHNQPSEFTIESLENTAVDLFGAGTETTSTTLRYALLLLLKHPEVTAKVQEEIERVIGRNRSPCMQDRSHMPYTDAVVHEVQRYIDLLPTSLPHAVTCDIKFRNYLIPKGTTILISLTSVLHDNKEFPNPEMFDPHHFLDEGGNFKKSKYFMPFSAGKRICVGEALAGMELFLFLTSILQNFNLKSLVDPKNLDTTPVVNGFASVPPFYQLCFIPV

[21] = ref Yu et al.[23]; cited from earlier work
[22] = ref Yu et al.[23]; cited from earlier work; remark: listed apart in the source
[23] = molecular target: T1, CYP3A4; settings: read-out: CYP3A4 (IC50); ref Yu et al.[23]; cited from earlier work
[24] = tested on: other P2YRs; settings: ref [8],[17]; cited from earlier work
[25] = tested on: 46 receptors, transporters, and ion channels; settings: non-P2YR off-target screen; ref [8],[9]; cited from earlier work
[26] = pH 4, aqueous solubility (pH 4.0, μg/mL), Table 5, pH 4.0, mean ± SD, pION method
[27] = pH 7.4, aqueous solubility (pH 7.4, μg/mL), Table 5, pH 7.4, mean ± SD, pION method

T1 sequence (P08684 whole entry): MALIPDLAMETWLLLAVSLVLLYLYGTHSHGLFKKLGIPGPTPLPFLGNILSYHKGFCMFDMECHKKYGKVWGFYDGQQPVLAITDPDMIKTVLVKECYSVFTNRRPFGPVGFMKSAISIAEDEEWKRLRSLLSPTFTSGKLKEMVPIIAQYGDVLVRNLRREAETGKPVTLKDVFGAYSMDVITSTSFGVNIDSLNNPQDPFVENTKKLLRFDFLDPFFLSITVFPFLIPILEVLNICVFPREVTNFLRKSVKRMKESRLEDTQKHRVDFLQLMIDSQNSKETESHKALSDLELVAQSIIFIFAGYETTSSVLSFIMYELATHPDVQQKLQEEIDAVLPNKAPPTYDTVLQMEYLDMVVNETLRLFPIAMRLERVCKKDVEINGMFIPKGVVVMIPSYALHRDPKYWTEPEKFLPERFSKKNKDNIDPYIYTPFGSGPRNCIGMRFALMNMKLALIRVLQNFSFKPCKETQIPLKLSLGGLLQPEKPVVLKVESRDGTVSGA

O=C(O)c1cc(-c2ccc(C34CCN(CC3)CC4)cc2)cc(-n2cc(-c3ccc(C(F)(F)F)cc3)nn2)c1 [Compound 18, 4′-(Quinuclidin-4-yl)-5-(4-(4-(trifluoromethyl)phenyl)-1H-1,2,3-triazol-1-yl)-[1,1′-biphenyl]-3-carboxylic Acid]
solubility [1, 26]: 14.4 ± 0.3 µg/mL (≈ 27.8 µM) | solubility [1, 27]: < 0.1 µg/mL | plasma protein binding [2]: high | IC50 [3]: 9.94 µM | time at which maximal plasma concentration was reached [4]: 3 to 4 h | plasma concentration at the 12 h time point [4]: 200 to 400 ng/kg | IC50 [5]: 14.1 µM

O=C(O)c1cc(-c2ccc(C34CCN(CC3)CC4)cc2)c2ccc(-c3ccc(C(F)(F)F)cc3)cc2c1 [Compound 17, 4-(4-(Quinuclidin-4-yl)phenyl)-7-(4-(trifluoromethyl)phenyl)-2-naphthoic Acid]
solubility [1, 26]: 14.3 ± 0.5 µg/mL (≈ 28.5 µM) | solubility [1, 27]: 0.44 ± 0.06 µg/mL (≈ 0.877 µM) | plasma protein binding [2]: high | effect on eosinophilic airway inflammation [6]: protected | IC50 [7]: 0.0308 ± 0.0022 µM | time at which maximal plasma concentration was reached [4]: 3 to 4 h | plasma concentration at the 12 h time point [4]: 200 to 400 ng/kg | solubility [8]: ≥ 1000 µg/mL | solubility in DMSO at 1 mM [8]: readily soluble

NCCCNC(=O)c1ccc(-c2cc(C(=O)O)cc(-c3cn(-c4ccc(C(F)(F)F)cc4)nn3)c2)s1 [Compound 26, 3-(5-((3-Aminopropyl)carbamoyl)thiophen-2-yl)-5-(1-(4-(trifluoromethyl)phenyl)-1H-1,2,3-triazol-4-yl)benzoic Acid]
Ki [9]: 2.96 µM

O=C(O)c1cc(-c2ccc(C3CCNCC3)cc2)c2ccc(-c3ccc(C(F)(F)F)cc3)cc2c1 [Compound 1, 4-[4-(4-piperidinyl)-phenyl]-7-[4-(trifluoromethyl)phenyl]-2-naphthalenecarboxylic acid, reference compound]
effect on eosinophilic airway inflammation [6]: protected; also recorded: strongly attenuated eosinophilic airway inflammation | IC50 [10]: > 10 µM | IC50 [11]: > 10 µM | efficacy in CCI model [12]: effective | inhibition of intact cell binding of 36 [13]: almost completely inhibited | solubility in DMSO at 1 mM [8]: failed to dissolve

NCCOCCOCCOCCOCCOCCOCCC(=O)N1CCC(c2ccc(-c3cc(C(=O)O)cc4cc(-c5ccc(C(F)(F)F)cc5)ccc34)cc2)CC1 [Compound 12, 4-(4-(1-(1-Amino-3,6,9,12,15,18-hexaoxahenicosan-21-oyl)piperidin-4-yl)phenyl)-7-(4-(trifluoromethyl)phenyl)-2-naphthoic Acid]
fold greater affinity at the mouse homologue than at the hP2Y14R [14]: 2 fold | lipophilicity (Δk), relative to 1 [15]: 0.71 ± 0.03 | solubility ([1]; pH 4): 8.02 ± 1.01 µg/mL (≈ 9.89 µM) | solubility ([1]; pH 7.4): 7.16 ± 1.16 µg/mL (≈ 8.83 µM) | fold greater aqueous solubility than 1 ([1]; pH 7.4, relative to 1): ~20 fold | plasma protein binding [2]: high | effect on eosinophilic airway inflammation [6]: inactive | effect on the hind paw response contralateral to the injury [16]: No effect | time of peak protection post-injection [16]: 1 to 2 h | reversal of CCI-induced mechano-allodynia ([16]; 7 days post-CCI, ipsilateral hind paw): reduced chronic pain; also recorded: fully efficacious | IC50 [17]: 963 ± 417 nM | solubility ([8]; water): ≥ 150 mM

NC(=O)c1ccc(-c2cc(C(=O)O)cc(-n3cc(-c4ccc(C(F)(F)F)cc4)nn3)c2)cc1 [Compound 22]
microsomal stability (t1/2, min) [18]: 145 min | plasma stability (three species) (% remaining at 120 min) [19]: 94–100% | IC50 [20]: > 30 µM | simulated gastric fluid (% remaining at 120 min) [21]: 100% | simulated intestinal fluid (% remaining at 120 min) [22]: 100% | IC50 [23]: > 30 µM

O=C(O)c1cc(-c2ccc(C3CCNCC3)cc2)cc(-n2cc(-c3ccc(C(F)(F)F)cc3)nn2)c1 [Compound 2, reference compound]
effect on eosinophilic airway inflammation [6]: inactive | activity at other P2YRs [24]: inactive | off-target interactions [25]: no detected off-target interactions
